Test results: US20190209576A1 (AI Therapeutics, Inc., priority 2014, published 2019)

How the values were obtained:
Format in all cases: cell-based
colon cancer cell lines = test: LAM-002 sensitivity (EC90) correlated with SNX10 expression; settings: 10 point dose response
Source text: Expression profiles were obtained from the public databases CCLE (Barretina, Caponigro, Stransky et al. The Cancer Cell Line Encyclopedia enables predictive modelling of anticancer drug sensitivity. Nature. 2012 Mar. 28; 483(7391):603-7) and COSMIC (Forbes SA1, Beare D2, Gunasekaran P2, et al. COSMIC: exploring the world's knowledge of somatic mutations in human cancer. Nucleic Acids Res. 2015 January; 43 (Database issue):D805-11). R statistical package (R Development Core Team (2008). R: A language and environment for statistical computing. R Foundation for Statistical Computing, Vienna, Austria. ISBN 3-900051-07-0) was used for the normalization of expression and the correlation analysis.
To determine LAM-002 sensitivity in colon cancer cell lines, the EC90 was calculated using a 10 point dose response as described above for EC50 determination. […] These findings support SNX10 expression as a predictive biomarker for LAM-002 sensitivity in colon cancer cells.

SW480 cells = test: Cell viability (CellTiterGlo), single agent, 120 h; settings: Homo sapiens, SW480, BRAF WT, 5 day assay
Protocol: (§1) For drug studies, HCT116, HT-29, RKO, HCT-15, SW1116, SW480 and SW620 cells were seeded at a density of 750, 8000, 300, 480, 1600, 2000, and 2000 cells per well, respectively, into 96 well plates in a final volume of 50 μL.
(§2) The apilimod used in these studies was apilimod dimesylate.
(§3) All drug dilutions were made up as a 2× stock and 50 μL added to appropriate wells. Cells were treated for 120 h before viability was assessed using CellTiterGlo® (Promega) where the relative luminescence of untreated cells was set to 100% viability and each drug concentration expressed as a percentage of untreated cells. EC50 values were determined using GraphPad Prism (GraphPad Software, Inc). Briefly, raw data was log transformed and then analyzed using nonlinear regression (curve fit) where the data were constrained (bottom=0, top=100).

HCT116 cells = test: Cell viability (CellTiterGlo), single agent, 120 h; settings: Homo sapiens, HCT-116, 120 h; HCT116, BRAF WT, 5 day assay
Protocol: as §1, §2, §3

SW620 cells = test: Cell viability (CellTiterGlo), single agent, 120 h; settings: Homo sapiens, SW-620, 120 h; SW620, BRAF WT, 5 day assay
Protocol: as §1, §2, §3

HT-29 cells = test: Cell viability (CellTiterGlo), single agent, 120 h; settings: Homo sapiens, HT-29, BRAF Mutant (V600E), 5 day assay
Protocol: as §1, §2, §3

RKO cells = test: Cell viability (CellTiterGlo), single agent, 120 h; settings: Homo sapiens, BRAF Mutant (V600E), 5 day assay
Protocol: as §1, §2, §3

SW1116 cells = test: Cell viability (CellTiterGlo), single agent, 120 h; settings: Homo sapiens, SW 1116, 120 h; SW1116, BRAF WT, 5 day assay
Protocol: as §1, §2, §3

HCT-15 cells = test: Cell viability (CellTiterGlo), single agent, 120 h; settings: Homo sapiens, HCT-15, BRAF WT, 5 day assay
Protocol: as §1, §2, §3

For `Cc1cccc(/C=N/Nc2cc(N3CCOCC3)nc(OCCc3ccccn3)n2)c1` [Apilimod], the “correlation between SNX10 expression and LAM-002 sensitivity (EC90)” value (colon cancer cell lines) was “colon cancer cells expressing higher levels of SNX10 are the most sensitive to LAM-002”, the EC50 (SW480 cells) was 24 nM and the EC50 (HCT116 cells) was 10 nM. For the same molecule, the EC50 (SW620 cells) was 9 nM, the EC50 (HT-29 cells) was 19 nM and the EC50 (RKO cells) was 52 nM. The EC50 (SW1116 cells) was 12 nM and the EC50 (HCT-15 cells) was 15 nM.
